Test results: PubChem BioAssay (NCI)
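The compound was tested at five concentrations on cells cultured in 96-well plates, with a 48-hour exposure period. GI50: concentration for 50% inhibition of growth. TGI: total growth inhibition.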

Key:
Assay in all cases: NCI tumour cell line growth inhibition, 48 h
OVCAR-8 ovarian = tested on: OVCAR-8 ovarian
CAKI-1 renal = tested on: CAKI-1 renal
EKVX NSCLC = tested on: EKVX NSCLC
RPMI-8226 leukemia = tested on: RPMI-8226 leukemia
ACHN renal = tested on: ACHN renal
OVCAR-3 ovarian = tested on: OVCAR-3 ovarian
SR leukemia = tested on: SR leukemia
BT-549 breast = tested on: BT-549 breast
IGROV1 ovarian = tested on: IGROV1 ovarian
TK-10 renal = tested on: TK-10 renal
DU-145 prostate = tested on: DU-145 prostate
HCT-116 colon = tested on: HCT-116 colon
M14 melanoma = tested on: M14 melanoma
HS 578T breast = tested on: HS 578T breast
SK-MEL-2 melanoma = tested on: SK-MEL-2 melanoma
MDA-MB-468 breast = tested on: MDA-MB-468 breast
NCI-H226 lung = tested on: NCI-H226 lung
MCF7 breast = tested on: MCF7 breast
HCC-2998 colon = tested on: HCC-2998 colon
NCI-H522 lung = tested on: NCI-H522 lung
UACC-62 melanoma = tested on: UACC-62 melanoma
SN12C renal = tested on: SN12C renal
NCI/ADR-RES ovarian = tested on: NCI/ADR-RES ovarian
A549 NSCLC = tested on: A549 NSCLC
CCRF-CEM leukemia = tested on: CCRF-CEM leukemia
UACC-257 melanoma = tested on: UACC-257 melanoma
A498 renal = tested on: A498 renal
PC-3 prostate = tested on: PC-3 prostate
SF-539 CNS = tested on: SF-539 CNS
HCT-15 colon = tested on: HCT-15 colon
RXF 393 renal = tested on: RXF 393 renal
NCI-H23 lung = tested on: NCI-H23 lung
U251 CNS = tested on: U251 CNS
SF-268 CNS = tested on: SF-268 CNS
MDA-MB-435 = tested on: MDA-MB-435
HOP-92 NSCLC = tested on: HOP-92 NSCLC
HOP-62 NSCLC = tested on: HOP-62 NSCLC
HT29 colon = tested on: HT29 colon
HL-60(TB) leukemia = tested on: HL-60(TB) leukemia
786-0 renal = tested on: 786-0 renal
SW-620 colon = tested on: SW-620 colon
MDA-MB-231 breast = tested on: MDA-MB-231 breast
COLO 205 colon = tested on: COLO 205 colon
SNB-19 CNS = tested on: SNB-19 CNS
SK-MEL-28 melanoma = tested on: SK-MEL-28 melanoma
KM12 colon = tested on: KM12 colon
LOX IMVI melanoma = tested on: LOX IMVI melanoma
OVCAR-5 ovarian = tested on: OVCAR-5 ovarian
OVCAR-4 ovarian = tested on: OVCAR-4 ovarian
SK-MEL-5 melanoma = tested on: SK-MEL-5 melanoma
UO-31 renal = tested on: UO-31 renal
NCI-H460 lung = tested on: NCI-H460 lung
K-562 leukemia = tested on: K-562 leukemia
SK-OV-3 ovarian = tested on: SK-OV-3 ovarian
MOLT-4 leukemia = tested on: MOLT-4 leukemia
T-47D breast = tested on: T-47D breast
SNB-75 CNS = tested on: SNB-75 CNS
MALME-3M melanoma = tested on: MALME-3M melanoma
SF-295 CNS = tested on: SF-295 CNS

Which results are given for `O=C(CSc1nnc(-c2ccc(-c3nc4ccccc4[nH]3)cc2)o1)Nc1ccc(Br)cc1`?
GI50 (OVCAR-8 ovarian): 4.11 µM; TGI (OVCAR-8 ovarian): 15.6 µM; GI50 (CAKI-1 renal): 2.03 µM; TGI (CAKI-1 renal): 4.83 µM; GI50 (EKVX NSCLC): 4.2 µM; TGI (EKVX NSCLC): 16.3 µM; GI50 (RPMI-8226 leukemia): 3.24 µM; TGI (RPMI-8226 leukemia): 36.1 µM; GI50 (ACHN renal): 3.55 µM; TGI (ACHN renal): 12.8 µM; GI50 (OVCAR-3 ovarian): 2.74 µM; TGI (OVCAR-3 ovarian): 8.95 µM; GI50 (SR leukemia): 4.57 µM; TGI (SR leukemia): 40.1 µM; GI50 (BT-549 breast): 3.03 µM; TGI (BT-549 breast): 7.93 µM; GI50 (IGROV1 ovarian): 10.3 µM; TGI (IGROV1 ovarian): 22.6 µM; GI50 (TK-10 renal): 14.8 µM; TGI (TK-10 renal): 29.6 µM; GI50 (DU-145 prostate): 3.2 µM; TGI (DU-145 prostate): 10.8 µM; GI50 (HCT-116 colon): 3.43 µM; TGI (HCT-116 colon): 13.7 µM; GI50 (M14 melanoma): 3.82 µM; TGI (M14 melanoma): 17.8 µM; GI50 (HS 578T breast): 3.39 µM; TGI (HS 578T breast): 16.3 µM; GI50 (SK-MEL-2 melanoma): 12.2 µM; TGI (SK-MEL-2 melanoma): 26.4 µM; GI50 (MDA-MB-468 breast): 6.47 µM; TGI (MDA-MB-468 breast): 20.7 µM; GI50 (NCI-H226 lung): 2.63 µM; TGI (NCI-H226 lung): 9.59 µM; GI50 (MCF7 breast): 2.88 µM; TGI (MCF7 breast): 12.5 µM; GI50 (HCC-2998 colon): 12.9 µM; TGI (HCC-2998 colon): 31.2 µM; GI50 (NCI-H522 lung): 2.74 µM; TGI (NCI-H522 lung): 14.6 µM; GI50 (UACC-62 melanoma): 4.13 µM; TGI (UACC-62 melanoma): 15.5 µM; GI50 (SN12C renal): 3.4 µM; TGI (SN12C renal): 12.7 µM; GI50 (NCI/ADR-RES ovarian): 5.14 µM; TGI (NCI/ADR-RES ovarian): 19.1 µM; GI50 (A549 NSCLC): 2.4 µM; TGI (A549 NSCLC): 6.24 µM; GI50 (CCRF-CEM leukemia): 3.41 µM; TGI (CCRF-CEM leukemia): 15.8 µM; GI50 (UACC-257 melanoma): 4.76 µM; TGI (UACC-257 melanoma): 20.5 µM; GI50 (A498 renal): 19 µM; TGI (A498 renal): 35.3 µM; GI50 (PC-3 prostate): 2.57 µM; TGI (PC-3 prostate): 8.99 µM; GI50 (SF-539 CNS): 2 µM; TGI (SF-539 CNS): 4.7 µM; GI50 (HCT-15 colon): 3.66 µM; TGI (HCT-15 colon): 15.1 µM; GI50 (RXF 393 renal): 2.26 µM; TGI (RXF 393 renal): 5.82 µM; GI50 (NCI-H23 lung): 3.22 µM; TGI (NCI-H23 lung): 12.4 µM; GI50 (U251 CNS): 6.78 µM; TGI (U251 CNS): 20.3 µM; GI50 (SF-268 CNS): 2.44 µM; TGI (SF-268 CNS): 6.61 µM; GI50 (MDA-MB-435): 2.11 µM; TGI (MDA-MB-435): 7.73 µM; GI50 (HOP-92 NSCLC): 3.24 µM; TGI (HOP-92 NSCLC): 11.5 µM; GI50 (HOP-62 NSCLC): 2.88 µM; TGI (HOP-62 NSCLC): 8.21 µM; GI50 (HT29 colon): 2.87 µM; TGI (HT29 colon): 12.8 µM; GI50 (HL-60(TB) leukemia): 6.37 µM; TGI (HL-60(TB) leukemia): 33.1 µM; GI50 (786-0 renal): 2.17 µM; TGI (786-0 renal): 4.29 µM; GI50 (SW-620 colon): 3.1 µM; TGI (SW-620 colon): 11.6 µM; GI50 (MDA-MB-231 breast): 4.38 µM; TGI (MDA-MB-231 breast): 15.1 µM; GI50 (COLO 205 colon): 10.6 µM; TGI (COLO 205 colon): 30.5 µM; GI50 (SNB-19 CNS): 5.36 µM; TGI (SNB-19 CNS): 18 µM; GI50 (SK-MEL-28 melanoma): 2.62 µM; TGI (SK-MEL-28 melanoma): 7.91 µM; GI50 (KM12 colon): 3.98 µM; TGI (KM12 colon): 18.6 µM; GI50 (LOX IMVI melanoma): 1.73 µM; TGI (LOX IMVI melanoma): 3.48 µM; GI50 (OVCAR-5 ovarian): 6.53 µM; TGI (OVCAR-5 ovarian): 20.4 µM; GI50 (OVCAR-4 ovarian): 3.23 µM; TGI (OVCAR-4 ovarian): 12.3 µM; GI50 (SK-MEL-5 melanoma): 4.8 µM; TGI (SK-MEL-5 melanoma): 17.3 µM; GI50 (UO-31 renal): 5.91 µM; TGI (UO-31 renal): 18.9 µM; GI50 (NCI-H460 lung): 1.95 µM; TGI (NCI-H460 lung): 4.54 µM; GI50 (K-562 leukemia): 3.01 µM; TGI (K-562 leukemia): > 100 µM; GI50 (SK-OV-3 ovarian): 12.1 µM; TGI (SK-OV-3 ovarian): 34.9 µM; GI50 (MOLT-4 leukemia): 3.26 µM; TGI (MOLT-4 leukemia): 18 µM; GI50 (T-47D breast): 3.81 µM; TGI (T-47D breast): 20.2 µM; GI50 (SNB-75 CNS): 2 µM; TGI (SNB-75 CNS): 7.51 µM; GI50 (MALME-3M melanoma): 2.37 µM; TGI (MALME-3M melanoma): 6.33 µM; GI50 (SF-295 CNS): 2.31 µM; TGI (SF-295 CNS): 5.97 µM
